Data reported in the METLIN SMRT retention time set (Domingo-Almenara et al. 2019).

Assay: gradient 5% acetonitrile 3 min, to 50% in 2 min, to 85% in 15 min, held 3 min, 100 µL/min
Settings: column: Zorbax Extend-C18 2.1 x 50 mm; eluents: water / acetonitrile, 0.1% formic acid
How it was run: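 Standards, all pure, were combined into mixtures of ~100 molecules and run at 100 μL/min on a Zorbax Extend-C18 column (2.1 × 50 mm, 1.8 μm) with water and acetonitrile, each containing 0.1% formic acid. A coupled quadrupole time-of-flight mass spectrometer operated in positive and negative ionization mode. Retention time values come from computationally picked adduct peaks, each inspected manually.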

Row | RP-LC retention time | SMILES
1 | 1050 s | CCN(Cc1ccccc1)C(=O)Cn1cccc1-c1nnc(-c2ccccc2)o1
2 | 604 s | CCOC(=O)CCNC(=O)N1CCCC(Cn2cnc3cccnc32)C1 (stereo not drawn)
3 | 768 s | Cc1ncoc1C(=O)N1CC(F)(F)C[C@H]1c1nc(C2CC2)no1
4 | 603 s | CCN(CC)C(=O)c1ccc2c(c1)N(CC(=O)NCCN1CCCCCC1)C(=O)CO2
5 | 1040 s | COc1cc(NC(=O)C2CCN(c3nccnc3Sc3ccccc3)CC2)cc(OC)c1
6 | 814 s | CC1=C(c2cccc(Cl)c2)S(=O)(=O)N=C1N1CCCN(C(=O)NCC(C)C)CC1
7 | 594 s | COC(=O)c1c(C)[nH]c(C(=O)N2CCC(CC(=O)NCCN3CCCCCC3)CC2)c1C
8 | 812 s | COc1ccc(OC)c(CNC(=O)C2CCCN(c3ccc(=O)n(-c4ccc(F)cc4)n3)C2)c1 (stereo not drawn)
9 | 791 s | CCN1c2cc(F)ccc2C(=O)NC12CCN(C(=O)c1cccc(F)c1)CC2
10 | 958 s | CN1C(=O)c2ccccc2Oc2ccc(C(=O)NC3CCCCCC3)cc21
11 | 804 s | CC1=C(C#N)C(C)(C)C(C#N)=C(C)N1
12 | 896 s | Cc1nc(-c2cc(S(=O)(=O)NCC(=O)N3CCN(c4ccccc4)CC3)c(C)s2)no1
13 | 568 s | Cc1ccc(Oc2cccc(C(=O)Nc3ccc(-c4cn5ccccc5n4)cc3)c2)nn1
14 | 585 s | CCn1cc(CN2CCC(C(=O)NCCCN3CCOCC3)CC2)c2cc(Cl)ccc21
15 | 851 s | COc1cccc(NS(=O)(=O)c2cc3c(s2)CCN(C(=O)C2CCC2)C3)c1
16 | 626 s | CCc1nc(N)n(CC(=O)Nc2ccc(F)cc2C)c(=O)c1C
17 | 780 s | COc1ccc(S(=O)(=O)N2CCCC(C(=O)NC3CC3)C2)cc1Cl (stereo not drawn)
18 | 801 s | CCCNC(=O)C1CCCN(c2nc3ncn(CC(=O)Nc4ccc(C(C)C)cc4)c(=O)c3s2)C1 (stereo not drawn)
19 | 1300 s | CCc1nnc(-c2ccc3ccn(CC(=O)NCc4ccccc4)c3c2)o1
20 | 742 s | CCc1cccc(Nc2nc3ccncc3n(Cc3ccccc3)c2=O)c1
21 | 677 s | Nc1nc(SCC(=O)c2ccc(-c3ccccc3)cc2)n[nH]1
22 | 959 s | COc1ccc(Cl)cc1NC(=O)c1nc2nc(C)cc(C(F)F)n2n1

Row | RP-LC retention time | SMILES
23 | 712 s | CCN(CC)C(=O)N1CCCC1Cc1noc(-c2cccnc2)n1 (stereo not drawn)
24 | 617 s | Cc1cc(C)c(S(=O)(=O)N2CCCC2c2nncn2Cc2ccncc2)c(C)c1 (stereo not drawn)
25 | 557 s | COCCN(Cc1ccncc1)C(=O)c1ccccc1SC
26 | 646 s | COc1ccc(-c2nc3cc(C)ccn3c2Nc2ccc3c(c2)OCO3)cc1
27 | 1010 s | O=C(Nc1ccc(F)cc1)C1CCN(S(=O)(=O)c2cc(-c3noc(C4CC4)n3)cs2)CC1
28 | 858 s | Cc1ccc(N2CCC(NC(=O)c3cc(F)cc(F)c3)C2=O)cc1 (stereo not drawn)
29 | 1250 s | Cc1ccc(-c2nnc(-c3ccc(Cl)c(S(=O)(=O)N4CCCCC4)c3)o2)cc1
30 | 711 s | COc1ccc(CNC(=O)N2CCN(Cc3nc4ccc(Cl)cc4o3)CC2)cc1
31 | 588 s | Cc1cc(C(=O)CN2CCN(C)CC2)c(C)n1-c1cccc(C(F)(F)F)c1
32 | 640 s | Cc1ccc2oc(C(=O)NCCc3cccs3)cc2n1
33 | 764 s | Cn1nc(CNC(=O)c2cccs2)c2ccccc21
34 | 855 s | COc1ccc(OCC(=O)N2CCN(c3ccc(-c4nc(C)c(C)s4)cn3)CC2)cc1
35 | 1000 s | CC(C)c1noc(-c2ccnc(-n3cnc(C(=O)NC(C)c4ccccc4)c3)c2)n1 (stereo not drawn)
36 | 699 s | COc1ccc(C2Cn3nnc(C(=O)N4CCC(C(=O)NC5CC5)CC4)c3CO2)cc1 (stereo not drawn)
37 | 819 s | CCc1noc(NC(C)=O)c1-c1ccc(C)c(S(=O)(=O)Nc2cc(OC)ccc2OC)c1
38 | 557 s | OC[C@@H]1CN(Cc2ccco2)C[C@H]1c1nc(-c2cccnc2)no1
39 | 692 s | CCc1ccccc1NC(=O)Cn1cnc2nc(N3CCCC(C(=O)NC4CC4)C3)sc2c1=O (stereo not drawn)
40 | 1230 s | CCOC(=O)c1cc(C2CC2)nc2c1c(=O)n(Cc1cccc(C)c1)c(=O)n2C
41 | 693 s | FC1(c2nc(Cc3ccccc3)no2)CCN(Cc2ccoc2)CC1
42 | 763 s | O=C(NCc1cc(F)cc(F)c1)c1cn(-c2ccc(NC(=O)C3CC3)cn2)cn1
43 | 708 s | CCCNC(=O)C1CCCN(c2nc3ncn(CC(=O)Nc4ccc(F)c(F)c4)c(=O)c3s2)C1 (stereo not drawn)
44 | 1050 s | COc1cc(NC(=O)c2nnn(-c3cc(OC)cc(OC)c3)c2C)cc(OC)c1

Row | RP-LC retention time | SMILES
45 | 779 s | O=C(Nc1cccc(-c2nnc3n2CCCC3)c1)c1ccc2ccccc2n1
46 | 750 s | O=C(NCc1ccc2c(c1)OCO2)C1CCCN(c2ncnc3c2nc2n3CCCCC2)C1 (stereo not drawn)
47 | 892 s | O=C(c1cccs1)N1CCc2ccc(NS(=O)(=O)C3CCCCC3)cc21
48 | 588 s | CC(C)c1nc2ccc(C(=O)NCCCN3CCN(C4CCCCC4)CC3)cc2o1
49 | 895 s | CCn1c(=O)c(N2CCN(C(=O)Nc3ccc(F)cc3F)CC2)nc2ccccc21
50 | 697 s | C=CCNC(=O)c1sc(Nc2cccc(C)n2)nc1C
51 | 796 s | Cc1ccc(C)c(NC(=O)Cn2c(C)cc(-c3nnc(C)o3)c2C)c1
52 | 824 s | Cc1sc(-c2nnc(C(=O)N3CCCCC3)o2)cc1S(=O)(=O)NC1CC1
53 | 596 s | NC(=O)C1CCN(S(=O)(=O)c2ccc3[nH]cc(C(=O)O)c(=O)c3c2)CC1
54 | 676 s | CC(=O)Nc1ccc(C(=O)NCc2cccs2)c(N2CCCCC2)c1
55 | 662 s | CN(C)c1ccc(CN2C(=O)CN(S(C)(=O)=O)CC2(C)C(=O)NCc2ccc(Cl)cc2)cc1 (stereo not drawn)
56 | 1220 s | CCOc1ccc(-n2cc(C(=O)OCC(=O)OC(C)(C)C)c3ccccc3c2=O)cc1
57 | 848 s | COc1ccc(-c2ccnc3cc(C(=O)Nc4ccc5c(c4)OCO5)nn23)cc1OC
58 | 755 s | CC(C)c1noc(C2CCCCN2C(=O)c2cnn3cccnc23)n1 (stereo not drawn)
59 | 680 s | O=C(NCCCN1CCCC1=O)c1cccc2c1CCN2C(=O)Nc1ccc(F)cc1
60 | 998 s | O=C(Nc1ccc(F)c(F)c1)C1CCCN(S(=O)(=O)Cc2ccccc2)C1 (stereo not drawn)
61 | 1020 s | O=C(CSc1ncnc2c1cnn2-c1ccc(F)cc1)Nc1nc2ccccc2s1
62 | 640 s | O=C(NCCN1CCc2ccccc2C1)c1cccc2c1CCN2C(=O)C1CC1
63 | 578 s | O=C(NC1CCN(c2cc(N3CCCC3)cnn2)C1)C1CC1 (stereo not drawn)
64 | 996 s | COc1cc(-c2nc(Cn3ccn4nc(-c5ccc(F)cc5)cc4c3=O)c(C)o2)cc(OC)c1OC
65 | 670 s | CCOC(=O)c1[nH]c(C)c(C(=O)N2CCC(CC(=O)NC(C)CC)CC2)c1C (stereo not drawn)
66 | 766 s | CCOC(=O)c1ccc(NC(=O)CN2CCN(Cc3ccccc3)C(=O)C2=O)cc1

Row | RP-LC retention time | SMILES
67 | 620 s | Cc1cc(C)cc(NC(=O)Nc2ccc3nc(N4CCN(C)CC4)cc(C)c3c2)c1
68 | 594 s | NC(=O)CCC(NC(=O)Cc1ccccc1)C(=O)O (stereo not drawn)
69 | 777 s | COc1ccc(NS(=O)(=O)c2ccc(/C=C\c3onc(C)c3NC(C)=O)cc2)c(OC)c1
70 | 623 s | CCOCC(=O)N1CCC(c2nc(CNC(=O)C3CCC3)cs2)CC1
71 | 648 s | Cc1ccc(S(=O)(=O)Nc2cccc(-c3cn4ccccc4n3)c2)cc1C
72 | 886 s | CCOC(=O)c1c(S(=O)(=O)N2CCC(C(=O)Nc3ccc(C)cc3)CC2)c(C)n(C)c1C
73 | 1140 s | CCC(C)NC(=O)c1c(O)c2cccnc2n(-c2ccc(OC)cc2)c1=O (stereo not drawn)
74 | 1140 s | COc1ccc(N2CC(c3noc(-c4ccc(C(C)(C)C)cc4)n3)CC2=O)cc1OC (stereo not drawn)
75 | 806 s | Brc1ccccc1Cc1nc(-c2ccn3cnnc3c2)no1
76 | 659 s | COc1cc(C(=O)N(Cc2ccc(N(C)C)cc2)CC2CCCO2)cc(OC)c1OC (stereo not drawn)
77 | 866 s | CCn1nccc1-c1csc(S(=O)(=O)NCc2cccs2)c1
78 | 936 s | CC(C)CNC(=O)c1ccc2c(c1)CCCN2S(=O)(=O)c1ccccc1
79 | 849 s | COc1ccc(S(=O)(=O)NCCS(=O)(=O)N2CCN(c3ccccc3)CC2)cc1
80 | 895 s | O=C(Nc1cc(F)cc(F)c1)NC1CCN(c2ccc(F)cc2)C1=O (stereo not drawn)
81 | 1060 s | CC(C)n1c(=O)sc2cc(S(=O)(=O)N3CCC(C(=O)Nc4cccc(Cl)c4)CC3)ccc21
82 | 1240 s | Cc1nc(-c2cc(S(=O)(=O)N3CCN(c4ccccc4Cl)CC3)c(C)s2)cs1
83 | 685 s | CCN1CCn2cc(S(=O)(=O)NCc3ccccc3F)cc2C1=O
84 | 984 s | COC(=O)c1ccc(NC(=O)C2CCCN(S(=O)(=O)c3cc(-c4noc(C)n4)cs3)C2)cc1 (stereo not drawn)
85 | 645 s | COc1ccccc1-n1c(SCC(=O)Nc2nnc(C)s2)nc2c(c1=O)SCC2
86 | 678 s | Cc1noc(COC2CCCN(C(=O)CCc3c(C)noc3C)C2)n1 (stereo not drawn)

Row | SMILES | RP-LC retention time
87 | COc1ccc2c(c1)C1(CCN(C(=O)COc3ccccc3)C1)C(=O)N2 (stereo not drawn) | 733 s
88 | CCN1CCN(C(=O)Cc2c(C)nc3nc(-c4ccccc4)nn3c2C)CC1 | 589 s
